Laboratory results published in PubChem BioAssay (NCI).
“And” between values parts separate entries of the source, which are not always exact repeats. Identical values can stand only once.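 Results reflect a 48-hour exposure of cells in 96-well plates to compound at five concentrations. GI50 = concentration required for 50% inhibition of growth. TGI: concentration producing complete growth inhibition.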

How the values were obtained:
Assay in all cases: growth of human tumour cells (NCI), 48 h
CCRF-CEM leukemia = test system: CCRF-CEM leukemia
HCC-2998 colon = test system: HCC-2998 colon
HOP-92 NSCLC = test system: HOP-92 NSCLC
LOX IMVI melanoma = test system: LOX IMVI melanoma
MOLT-4 leukemia = test system: MOLT-4 leukemia
NCI-H460 lung = test system: NCI-H460 lung
RPMI-8226 leukemia = test system: RPMI-8226 leukemia
SF-268 CNS = test system: SF-268 CNS
SK-MEL-28 melanoma = test system: SK-MEL-28 melanoma
SK-OV-3 ovarian = test system: SK-OV-3 ovarian

| SMILES | TGI (CCRF-CEM leukemia) [µM] | TGI (HCC-2998 colon) [µM] | TGI (HOP-92 NSCLC) [µM] | TGI (LOX IMVI melanoma) [µM] | TGI (MOLT-4 leukemia) [µM] | TGI (NCI-H460 lung) [µM] | TGI (RPMI-8226 leukemia) [µM] | TGI (SF-268 CNS) [µM] | TGI (SK-MEL-28 melanoma) [µM] | TGI (SK-OV-3 ovarian) [µM] | GI50 (CCRF-CEM leukemia) [µM] | GI50 (HOP-92 NSCLC) [µM] | GI50 (LOX IMVI melanoma) [µM] | GI50 (MOLT-4 leukemia) | GI50 (NCI-H460 lung) [µM] | GI50 (RPMI-8226 leukemia) [µM] | GI50 (SF-268 CNS) [µM] | GI50 (SK-MEL-28 melanoma) [µM] |
| --- | --- | --- | --- | --- | --- | --- | --- | --- | --- | --- | --- | --- | --- | --- | --- | --- | --- | --- |
| N#Cc1c(N)nc(Sc2ccccc2N)c(C#N)c1-c1ccc(Cl)cc1 | > 100 | 36 | 53.1 | 15.3 | > 24.6 | 58.6 | 28.8 | 23.8 | > 100 | 40.6 | – | – | – | – | – | – | – | – |
| CCOC(=O)CCC(NC(=O)c1ccc(OCc2ccc3nc(-c4ccccc4)c(Cl)nc3c2)cc1)C(=O)OCC (stereo not drawn) | > 31.6 | > 31.6 | 25.5 | > 100 | > 31.6 | > 31.6 | > 31.6 | 28.1 | > 31.6 | > 100 | – | – | – | – | – | – | – | – |
| CC(=O)Nc1c(C)cc2c(nc3n2CCC3O)c1[N+](=O)[O-] (stereo not drawn) | > 100 | > 100 | > 100 | > 100 | > 100 | > 100 | > 100 | > 100 | > 100 | > 100 | – | – | – | – | – | – | – | – |
| Nc1onc2c1Cc1c(noc1N)-c1ccccc1-2 | > 100 | > 100 | 94.6 | > 100 | > 100 | > 100 | > 100 | > 100 | > 100 | > 100 | – | – | – | – | – | – | – | – |
| Cn1cc2ccccc2c1-c1nc(F)nc(OCC(=O)[C@H]2CCC3[C@@H]4CCC5=CC(=O)CC[C@]5(C)C4[C@@H](O)C[C@@]32C)n1 (stereo partly drawn) | 27.5 | 48.4 | 36.6 | 23.3 | 54.3 | 52.2 | 21.3 | 33.3 | 31.2 | 37.3 | – | – | – | – | – | – | – | – |
| Cc1ccc(NC(=O)c2cc(S(=O)(=O)Nc3nc4ncccc4[nH]3)c(SSc3cc(Cl)c(C(=O)Nc4ccc(C)cc4)cc3S(=O)(=O)Nc3nc4ncccc4[nH]3)cc2Cl)cc1 | > 100 | > 100 | > 100 | > 100 | > 100 | > 100 | > 100 | > 100 | > 100 | > 100 | – | – | – | – | – | – | – | – |
| Cc1ccccc1S(=O)(=O)Nn1cnc2ccc(S(=O)(=O)Nc3ccc(Cl)cc3)cc2c1=O | > 100 | > 100 | > 100 | > 100 | > 100 | > 100 | > 100 | > 100 | > 100 | > 100 | – | – | – | – | – | – | – | – |
| CCCCCCCCCCCCC(O)[C@H]1CC[C@H](C(O)CCCCCC(=O)CCCCC2CC(C(C)=O)C(=O)O2)O1 (stereo partly drawn) | > 45.6 | 32.1 | 31.7 | 21.6 | 23.4 | 22.5 | > 27.8 | 53.4 | 66.2 | 28 | 2.15 | 3.23 | 1.87 | 2.81 µM and 2.14 µM | 9.67 | 2.12 | 3.43 | 4.06 |
| COC(=O)c1c2cccccc-2c(Cc2c3cccccc-3c(C(=O)OC)c2O)c1O | > 100 | > 100 | > 100 | > 100 | > 100 | > 100 | > 100 | > 100 | > 100 | > 100 | – | – | – | – | – | – | – | – |
